Test results as given in the supplement of paper PMC10627819.

Legend:
S. aureus Newman [1] = assay: fitness (endpoint OD595 vs no drug) (fraction); higher = more growth
Procedure, shortened: (§1)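 Fitness is computed from the optical density at which cultures reach stationary phase, divided by the robust mean of no-drug control wells. Any value above 1 is set to 1. Cultures started at OD595 0.01 in 384-well plates with TSB, LB Lennox or CY at 37 °C, and OD595 was read every 30 min for 14 h against a first-reading background.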

B. subtilis 168 [2] = assay: as above
Procedure, shortened: as §1

S. pneumoniae D39V [3] = assay: as above
Procedure, shortened: as §1

S. aureus Newman [4] = assay: Bliss interaction score (quartile over a dose matrix) (fitness difference); higher = more antagonism (negative = synergy)
Procedure, shortened: (§2)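 Growth was read as OD595 when cultures entered stationary phase, and each value was divided by the plate's robust no-drug mean and capped at 1. This normalised ratio is the fitness value, and fitness for each single drug came from the combination data. The Bliss score subtracts the expected fitness, taken as the product, from the observed fitness and is given as quartiles across technical, biological and donor/recipient replicates.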

S. aureus DSM 20231 = assay: as above
Procedure, shortened: as §2

B. subtilis 168 [5] = assay: as above
Procedure, shortened: as §2

S. pneumoniae D39V [6] = assay: as above
Procedure, shortened: as §2
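Throughout, for Bliss interaction score (quartile over a dose matrix): first quartile when negative (synergy) and third quartile when positive (antagonism).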
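Throughout, for fitness (endpoint OD595 vs no drug): OD595 on entry to stationary phase over no-drug wells; at most 1.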

COc1cccc2c1C(=O)c1c(O)c3c(c(O)c1C2=O)C[C@@](O)(C(=O)CO)C[C@@H]3O[C@H]1C[C@H](N)[C@H](O)[C@H](C)O1 [Doxorubicin] + CN[C@@H]1[C@H](O[C@H]2[C@H](O[C@H]3[C@H](O)[C@@H](O)[C@H](N=C(N)N)[C@@H](O)[C@@H]3N=C(N)N)O[C@@H](C)[C@]2(O)C=O)O[C@@H](CO)[C@H](O)[C@H]1O [Streptomycin]
fitness
Conditions | partner 1 µg/mL | partner 2 µg/mL | partner 4 µg/mL | partner 8 µg/mL
B. subtilis 168 [2], first compound 0.625 µg/mL | – | 0.869 | – | 0.0284
B. subtilis 168 [2], first compound 1.25 µg/mL | – | – | – | 0.0203
B. subtilis 168 [2], first compound 2.5 µg/mL | – | 0.0556 | 0.0219 | 0.0198
S. aureus Newman [1], first compound 0.625 µg/mL | 0.791 | 0.788 | – | –
S. aureus Newman [1], first compound 1.25 µg/mL | 0.769 | 0.746 | – | –
S. aureus Newman [1], first compound 2.5 µg/mL | 0.75 | 0.742 | – | –
S. pneumoniae D39V [3], first compound 0.25 µg/mL | – | 0.898 | 0.918 | 0.892
S. pneumoniae D39V [3], first compound 0.5 µg/mL | – | 0.935 | 0.907 | 0.901
S. pneumoniae D39V [3], first compound 1 µg/mL | – | 0.874 | 0.875 | 0.858

S. pneumoniae D39V [3], partner 16 µg/mL, one replicate
Conditions | fitness
first compound 0.25 µg/mL | 0.817
first compound 0.5 µg/mL | 0.761
first compound 1 µg/mL | 0.558

Conditions | Bliss interaction score
B. subtilis 168 [5] | -0.355
S. aureus DSM 20231 | -0.0832
S. aureus Newman [4] | -0.043
S. pneumoniae D39V [6] | 0.0825

O=C(O)c1cn(C2CC2)c2cc(N3CCNCC3)c(F)cc2c1=O [Ciprofloxacin] + CCC[C@@H]1C[C@@H](C(=O)N[C@@H]([C@H]2O[C@H](SC)[C@H](O)[C@@H](O)[C@H]2O)[C@H](C)Cl)N(C)C1 [Clindamycin]
Conditions | fitness
B. subtilis 168 [2], first compound 0.0098 µg/mL, partner 0.0625 µg/mL | 0.508
B. subtilis 168 [2], first compound 0.0098 µg/mL, partner 0.125 µg/mL | 0.394
B. subtilis 168 [2], first compound 0.0098 µg/mL, partner 0.25 µg/mL | 0.373
B. subtilis 168 [2], first compound 0.0195 µg/mL, partner 0.0625 µg/mL | 0.416
B. subtilis 168 [2], first compound 0.0195 µg/mL, partner 0.125 µg/mL | 0.337
B. subtilis 168 [2], first compound 0.0195 µg/mL, partner 0.25 µg/mL | 0.312
B. subtilis 168 [2], first compound 0.039 µg/mL, partner 0.0625 µg/mL | 0.39
B. subtilis 168 [2], first compound 0.039 µg/mL, partner 0.125 µg/mL | 0.311
B. subtilis 168 [2], first compound 0.039 µg/mL, partner 0.25 µg/mL | 0.303
S. aureus Newman [1], first compound 0.0375 µg/mL, partner 0.0312 µg/mL | 0.545
S. aureus Newman [1], first compound 0.0375 µg/mL, partner 0.0625 µg/mL | 0.425
S. aureus Newman [1], first compound 0.0375 µg/mL, partner 0.125 µg/mL | 0.11
S. aureus Newman [1], first compound 0.075 µg/mL, partner 0.0312 µg/mL | 0.604
S. aureus Newman [1], first compound 0.075 µg/mL, partner 0.0625 µg/mL | 0.475
S. aureus Newman [1], first compound 0.075 µg/mL, partner 0.125 µg/mL | 0.153
S. aureus Newman [1], first compound 0.15 µg/mL, partner 0.0312 µg/mL | 0.335
S. aureus Newman [1], first compound 0.15 µg/mL, partner 0.0625 µg/mL | 0.292
S. aureus Newman [1], first compound 0.15 µg/mL, partner 0.125 µg/mL | 0.104
S. pneumoniae D39V [3], first compound 0.125 µg/mL, partner 0.0125 µg/mL | 0.763
S. pneumoniae D39V [3], first compound 0.125 µg/mL, partner 0.015 µg/mL | 0.8
S. pneumoniae D39V [3], first compound 0.125 µg/mL, partner 0.025 µg/mL | 0.531
S. pneumoniae D39V [3], first compound 0.125 µg/mL, partner 0.03 µg/mL | 0.54
S. pneumoniae D39V [3], first compound 0.125 µg/mL, partner 0.05 µg/mL | 0.2
S. pneumoniae D39V [3], first compound 0.125 µg/mL, partner 0.06 µg/mL | 0.325
S. pneumoniae D39V [3], first compound 0.25 µg/mL, partner 0.0125 µg/mL | 0.733
S. pneumoniae D39V [3], first compound 0.25 µg/mL, partner 0.025 µg/mL | 0.494
S. pneumoniae D39V [3], first compound 0.25 µg/mL, partner 0.05 µg/mL | 0.168
S. pneumoniae D39V [3], first compound 0.5 µg/mL, partner 0.0125 µg/mL | 0.636
S. pneumoniae D39V [3], first compound 0.5 µg/mL, partner 0.015 µg/mL | 0.564
S. pneumoniae D39V [3], first compound 0.5 µg/mL, partner 0.025 µg/mL | 0.434
S. pneumoniae D39V [3], first compound 0.5 µg/mL, partner 0.03 µg/mL | 0.431
S. pneumoniae D39V [3], first compound 0.5 µg/mL, partner 0.05 µg/mL | 0.158
S. pneumoniae D39V [3], first compound 0.5 µg/mL, partner 0.06 µg/mL | 0.294

fitness, one replicate
Conditions | partner 0.0039 µg/mL | partner 0.0078 µg/mL | partner 0.015 µg/mL | partner 0.0156 µg/mL | partner 0.03 µg/mL | partner 0.06 µg/mL
B. subtilis 168 [2], first compound 0.0098 µg/mL | ≥ 1 | 0.403 | – | 0.818 | – | –
B. subtilis 168 [2], first compound 0.0195 µg/mL | 0.903 | 0.394 | – | 0.742 | – | –
B. subtilis 168 [2], first compound 0.039 µg/mL | 0.627 | 0.326 | – | 0.557 | – | –
S. pneumoniae D39V [3], first compound 0.25 µg/mL | – | – | 0.708 | – | 0.454 | 0.259

Conditions | Bliss interaction score
B. subtilis 168 [5] | 0.226
S. aureus DSM 20231 | 0.0603
S. aureus Newman [4] | 0.157
S. pneumoniae D39V [6] | 0.061
